# Results from US8497263B2, “Pyrrolinone derivative and pharmaceutical composition comprising the same” (Shionogi & Co., Ltd., priority 2007, dated 2013).
# pIC50: −log10 of the molar value.
# Tested on: not given
# Assay: not given
# Details: not given
row,melting point [°C],Structure (SMILES)
1,252 to 255,CCOC(=O)c1ccc(N2C(=O)C(=O)C(C(=O)c3ccc(OC)cc3)C2C2CCCCC2)cc1 (stereo not drawn) [Example I-2]
2,236 to 239,COc1ccc(C(=O)C2=C(O)C(=O)N(c3ccc(-c4nc(C)no4)cc3)C2c2ccc(F)cc2)cc1 (stereo not drawn) [Example I-25]

# Molecular target: T1, human P2X3 receptor (Homo sapiens, UniProt P56373)
# T1 construct: expressed in transfected cells
# T1 sequence (P56373 1-397): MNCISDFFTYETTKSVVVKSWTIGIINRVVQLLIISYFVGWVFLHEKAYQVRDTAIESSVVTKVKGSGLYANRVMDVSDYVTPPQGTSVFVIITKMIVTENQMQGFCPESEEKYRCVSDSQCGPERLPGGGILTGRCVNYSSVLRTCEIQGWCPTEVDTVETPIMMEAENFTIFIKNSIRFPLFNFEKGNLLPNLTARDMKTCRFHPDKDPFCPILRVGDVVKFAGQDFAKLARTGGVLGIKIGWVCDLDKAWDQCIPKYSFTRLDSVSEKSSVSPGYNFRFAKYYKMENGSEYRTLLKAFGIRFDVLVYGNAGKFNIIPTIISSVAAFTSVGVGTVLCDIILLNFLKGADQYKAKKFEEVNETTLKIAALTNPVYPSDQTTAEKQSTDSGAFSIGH
# Assay: Inhibition of ATP-induced calcium fluorescence (Fluo-3, FDSS 3000) in C6BU-1 cells stably expressing human P2X3 receptor
# Type: cell-based
# Details: C6BU-1 cell transfected with human P2X3 receptor gene; 40 nM ATP solution; Fluo-3 fluorescence intensity
# Experimental: Stably expressing cell line (C6BU-1 cell transfected with human P2X3 receptor gene (GenBank accession number Y07683)) was used. The cells were seeded in a 96-well microtiter plate at a concentration of 8000 cells/well and cultured in the medium (8.3% fetal bovine serum, 8.3% horse serum, 1% antibiotic and antifungal in DMEM) for one day at 37° C. under 5% carbon dioxide atmosphere. The medium was replaced with 4 μM Fluo-3-AM solution (pH7.5) containing 20 mM HEPES, 137 mM NaCl, 2.7 mM KCl, 0.9 mM MgCl2, 5.0 mM CaCl2, 5.6 mM D-glucose, 2.5 mM probenecid, 10% BSA, and 0.08% Pluronic F-127, and incubated at 37° C. under 5% dioxide carbon atmosphere for one hour. The plate was washed with washing buffer (20 mM HEPES, 137 mM NaCl, 2.7 mM KCl, 0.9 mM MgCl2, 5.0 mM CaCl2, 5.6 mM D-glucose, 2.5 mM probenecid, pH7.5), and each well was added with 40 μL of this buffer. The plate was placed in High-Throughput Screening System FDSS 3000 (Hamamatsu Photonics K.K.). Measurement of fluorescence intensity by FDSS 3000 was started, and 40 μL of DMSO solutions containing different concentrations of the test compound as prepared by dilution with dilution buffer (20 mM HEPES, 137 mM NaCl, 2.7 mM KCl, 0.9 mM MgCl2, 5.0 mM CaCl2, 5.6 mM D-glucose, 2.5 mM probenecid, 0.1% Pluronic F-127, pH7.5) were dispensed to each well through the built-in automatic dispenser. Five minutes after, 40 nM ATP solution (50 μL) prepared by dilution with the dilution buffer was dispensed through the built-in automatic dispenser, and the measurement of fluorescence intensity was continued for 3 min. For each well, the specific maximum fluorescence intensity was calculated as the ratio of the maximum fluorescence intensity after addition of the ATP solution to the fluorescence intensity at the starting of the measurement. […] FDSS software (Hamamatsu Photonics K.K.) was used for calculation of the specific maximum fluorescence intensity. IC50 was calculated using Microsoft™ Excel™ (Microsoft Corporation) and XLfit™ (ID Business Solutions Ltd.).
row,Structure (SMILES),pIC50
1,CCOC(=O)c1ccc(N2C(=O)C(O)=C(C(=O)c3cccn3C)C2c2ccccc2)cc1 (stereo not drawn) [Example I-57],5.82
2,CC(=O)c1ccc(N2C(=O)C(=O)C(C(=O)c3ccc(Cl)cc3)C2c2ccc(Br)cc2)cc1 (stereo not drawn) [Example I-62],5.71
3,COc1ccc(C(=O)C2=C(O)C(=O)N(c3ccc(Cl)cc3)C2c2ccc(F)cc2)cc1 (stereo not drawn) [Example I-66],5.46
4,CCOC(=O)c1ccc(N2C(=O)C(=O)C(C(C)=O)C2c2ccccc2)cc1 (stereo not drawn) [Example I-72],5.32
5,COc1ccc(C(=O)C2=C(O)C(=O)N(c3ccc(C(=O)N(C)C)cc3)C2c2ccccc2)cc1 (stereo not drawn) [Example I-74],5.23
6,COc1ccc(C(=O)C2=C(O)C(=O)N(c3ccc(C#N)cc3)C2c2ccccc2)cc1 (stereo not drawn) [Example I-76],5.19
7,CCOC(=O)c1ccc(N2C(=O)C(O)=C(C(=O)c3ccco3)C2c2ccccc2)cc1 (stereo not drawn) [Example I-77],5.10
8,CCOC(=O)Cc1ccc(N2C(=O)C(O)=C(C(=O)c3ccc(OC)cc3)C2c2ccccc2)cc1 (stereo not drawn) [Example I-79],5.05
9,CCOc1ccc(C(=O)C2C(=O)C(=O)N(c3ccc(OC)cc3)C2c2ccc(Cl)cc2)cc1 (stereo not drawn) [Example I-88],4.81
10,O=C1c2[nH]nc(-c3ccc(Cl)cc3)c2C(c2ccc([N+](=O)[O-])cc2)N1c1ccccn1 (stereo not drawn) [Example I-118],4.75
11,COc1cccc(C2c3c(C)n[nH]c3C(=O)N2c2ccc(Br)cc2)c1 (stereo not drawn) [Example I-122],4.71
12,COc1ccc(C2NC(=O)c3[nH]nc(-c4ccc(C)cc4)c32)cc1OC (stereo not drawn) [Example I-124],4.66
13,COc1ccccc1C1c2c(C3CCC3)n[nH]c2C(=O)N1c1ccc(F)cc1 (stereo not drawn) [Example I-260],5.25
14,COc1ccc(C(=O)C2=C(O)C(=O)N(CCc3ccc(F)cc3)C2c2ccccc2OC)cc1 (stereo not drawn) [Example I-273],5.66
15,COc1ccc(-c2n[nH]c3c2C(c2ccccc2OC)N(CCc2ccc(F)cc2)C3=O)cc1 (stereo not drawn) [Example I-278],5.85
16,COc1ccccc1C1c2c(-c3ccc(F)cc3)n[nH]c2C(=O)N1c1ccc(F)cc1 (stereo not drawn) [II-5],5.86
17,CCOC(=O)c1ccc(N2C(=O)C(=NOC)C(C(=O)c3ccc(OC)cc3)C2c2ccccc2)cc1 (stereo not drawn) [II-16],5.82
18,COc1ccc(/C(N)=C2/C(=O)C(=O)N(c3ccc(C(F)(F)F)cc3)C2c2ccccc2)cc1 (stereo not drawn) [II-22],5.64
19,C#Cc1ccc(N2C(=O)C(O)=C(C(=O)c3ccc(OC)cc3)C2c2ccc(F)cc2)cc1 (stereo not drawn) [II-57],5.77
20,C#Cc1ccc(N2C(=O)c3[nH]nc(C(C)(C)C)c3C2c2ccc(F)cc2)cc1 (stereo not drawn) [II-64],5.88
21,COc1ccccc1C1C(C(=O)CCOCc2ccccc2)=C(O)C(=O)N1c1ccc(-c2ccon2)cc1 (stereo not drawn) [II-85],5.60
22,COc1ccccc1C1c2c(CCOCc3ccccc3)n[nH]c2C(=O)N1c1ccc(-c2ccon2)cc1 (stereo not drawn) [II-87],5.88
23,COc1ccc(-c2n[nH]c3c2C(c2ccccc2)N(c2ccc(C(=O)N(C)C)cc2)C3=O)cc1 (stereo not drawn) [II-106],5.68
24,COc1ccccc1C1C(C(=O)C(C)=O)=C(O)C(=O)N1c1ccc(-c2ccon2)cc1 (stereo not drawn) [II-123],5.68
25,COc1ccccc1C1c2c(C(C)(C)C)n[nH]c2C(=O)N1c1ccc(-c2cc(C(=O)N(C)C)no2)cc1 (stereo not drawn) [II-172],5.70
26,COc1ccccc1C1c2c(C(C)(C)C)n[nH]c2C(=O)N1c1ccc(-c2cc(NC(=O)OC(C)(C)C)no2)cc1 (stereo not drawn) [II-193],5.64
27,CC(=O)Nc1ccc(-c2n[nH]c3c2C(C2CCCCC2)N(c2ccc(-c4ccon4)cc2)C3=O)cc1 (stereo not drawn) [II-202],5.79
28,COc1ccc(-c2n[nH]c3c2C(C2CC2)N(c2ccc(-c4ccon4)cc2)C3=O)cc1 (stereo not drawn) [II-217],5.73

# Continued, values first:
row,pIC50,Structure (SMILES)
1,8.00,CCOC(=O)c1ccc(N2C(=O)C(=O)C(C(=O)c3ccc(OC)cc3)C2C2CCCCC2)cc1 (stereo not drawn) [Example I-2]
2,7.70,CCOC(=O)c1ccc(N2C(=O)C(=O)C(C(=O)c3ccc(OC)cc3)C2c2ccccc2)cc1 (stereo not drawn) [Example I-4]
3,6.85,CCOC(=O)c1ccc(N2C(=O)C(O)=C(C(=O)c3ccc(OC)cc3)C2C(C)C)cc1 (stereo not drawn) [Example I-20]
4,6.80,COc1ccc(C(=O)C2C(=O)C(=O)N(c3ccc(C(=O)OC(C)C)cc3)C2c2ccccc2)cc1 (stereo not drawn) [Example I-21]
5,6.74,COC(=O)c1ccc(C(=O)C2=C(O)C(=O)N(c3ccc(C(F)(F)F)cc3)C2c2ccccc2)cc1 (stereo not drawn) [Example I-24]
6,6.74,COc1ccc(C(=O)C2=C(O)C(=O)N(c3ccc(-c4nc(C)no4)cc3)C2c2ccc(F)cc2)cc1 (stereo not drawn) [Example I-25]
7,6.59,CCOC(=O)c1ccc(N2C(=O)C(O)=C(C(=O)C(C)(C)C)C2c2ccccc2)cc1 (stereo not drawn) [Example I-28]
8,6.42,CCOC(=O)c1ccc(N2C(=O)C(O)=C(C(=O)c3cccs3)C2c2ccccc2)cc1 (stereo not drawn) [Example I-36]
9,6.25,CCOC(=O)c1ccc(N2C(=O)C(=O)C(/C(=N\O)c3ccc(OC)cc3)C2c2ccccc2)cc1 (stereo not drawn) [Example I-44]
10,5.99,CCCCC(=O)C1=C(O)C(=O)N(c2ccc(C(=O)OCC)cc2)C1c1ccccc1 (stereo not drawn) [Example I-49]
11,5.90,CCOC(=O)c1csc(N2C(=O)C(O)=C(C(=O)c3ccc(OC)cc3)C2c2ccccc2)n1 (stereo not drawn) [Example I-52]
12,5.89,CCOC(=O)c1ccc(N2C(=O)C(O)=C(C(=O)C3CCC3)C2c2ccccc2)cc1 (stereo not drawn) [Example I-53]
13,6.25,COc1ccccc1C1c2c(-c3ccc(C)cc3)n[nH]c2C(=O)N1c1ccc(F)cc1 (stereo not drawn) [Example I-95]
14,6.07,CCCCC(=O)C1=C(O)C(=O)N(c2ccc(-c3ccon3)cc2)C1c1ccccc1OC (stereo not drawn) [II-9]
15,6.24,CO/N=C/c1ccc(N2C(=O)c3[nH]nc(-c4ccc(OC)cc4)c3C2c2ccccc2OC)cc1 (stereo not drawn) [II-13]
16,6.52,CCOC(=O)c1ccc(N2C(=O)C(O)=C(C(=NOC)c3ccc(OC)cc3)C2c2ccccc2)cc1 (stereo not drawn) [II-17]
17,6.23,COc1ccccc1C1C(C(=O)C(C)(C)C)=C(O)C(=O)N1c1ccc(C2=NCCS2)cc1 (stereo not drawn) [II-29]
18,5.97,COc1ccccc1C1C(C(=O)C2CC2)=C(O)C(=O)N1c1ccc(-c2ccon2)cc1 (stereo not drawn) [II-45]
19,6.43,O=C(C1=C(O)C(=O)N(c2ccc(-c3ccon3)cc2)C1C1CCCCC1)c1cccnc1 (stereo not drawn) [II-75]
20,6.15,COc1ccc(C(=O)C2=C(O)C(=O)N(c3nc(-c4ccncc4)cs3)C2C2CCCCC2)cc1 (stereo not drawn) [II-95]
21,7.15,O=C(C1=C(O)C(=O)N(c2ccc(-c3ccon3)cc2)C1C1CCCCC1)c1ccc([N+](=O)[O-])cc1 (stereo not drawn) [II-98]
22,6.13,COc1ccccc1C1C(C(=O)C(C)(C)CO)=C(O)C(=O)N1c1ccc(-c2ccon2)cc1 (stereo not drawn) [II-129]
23,6.89,Nc1ccc(C(=O)C2=C(O)C(=O)N(c3ccc(-c4ccon4)cc3)C2C2CCCCC2)cc1 (stereo not drawn) [II-130]
24,6.02,COc1ccccc1C1c2c(C(C)(C)C)n[nH]c2C(=O)N1c1ccc(-c2cc(CO)no2)cc1 (stereo not drawn) [II-171]
25,6.48,COc1ccc(C(=O)C2=C(O)C(=O)N(c3nc4ccc(Cl)cc4s3)C2C2CCCCC2)cc1 (stereo not drawn) [II-181]
26,7.49,CCC(CC)C1C(C(=O)c2ccc(C(=O)NCCO)cc2)=C(O)C(=O)N1c1ccc(-c2noc(C)n2)cc1 (stereo not drawn) [II-183]
27,8.00,CC(=O)Nc1ccc(C(=O)C2=C(O)C(=O)N(c3ccc(-c4ccon4)cc3)C2C2CCCCC2)cc1 (stereo not drawn) [II-201]
